Results published in patent US6737383B1, “Herbicidal oxadiazolidines” (priority 1999, dated 2004).

What was measured:
purple nutsedge = test: Test B pre/postemergence purple nutsedge; type: in vivo, Cyperus rotundus
Method in brief: (§1)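 Response is a visual 0-to-10 score relative to untreated plants, where 0 means no effect and 10 means complete control, taken twelve to sixteen days after application. Treatments went onto soil at planting and onto foliage of 1- to 4-leaf plants, using a surfactant-containing non-phytotoxic solvent.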

wheat = test: Test B pre/postemergence wheat; type: in vivo, Triticum aestivum
Method in brief: as §1

duck salad = test: Test B flood test duck salad; type: in vivo, Heteranthera limosa
Method in brief: (§2)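 Each value is a visual injury score relative to controls, with 10 meaning complete control and 0 no effect. Evaluation took place twelve to sixteen days after the 2-leaf-stage plants were treated and kept in the greenhouse.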

corn = test: Test B pre/postemergence corn; type: in vivo, Zea mays
Method in brief: as §1

wild oat = test: Test B pre/postemergence wild oat; type: in vivo, Avena fatua
Method in brief: as §1

rape = test: Test B pre/postemergence rape; type: in vivo, Brassica napus
Method in brief: as §1

rice = test: Test B flood test rice; type: in vivo, Oryza sativa
Method in brief: as §2

crabgrass = test: Test B pre/postemergence crabgrass; type: in vivo, Digitaria sanguinalis
Method in brief: as §1

surinam grass = test: Test B pre/postemergence surinam grass; type: in vivo, Brachiaria decumbens
Method in brief: as §1

pigweed = test: Test B pre/postemergence pigweed; type: in vivo, Amaranthus retroflexus
Method in brief: as §1

bamyardgrass = test: Test B flood test barnyardgrass; type: in vivo, Echinochloa crus-galli
Method in brief: as §2

velvetleaf = test: Test B pre/postemergence velvetleaf; type: in vivo, Abutilon theophrasti
Method in brief: as §1

sugar beet = test: Test B pre/postemergence sugar beet; type: in vivo, Beta vulgaris
Method in brief: as §1

giant foxtail = test: Test B pre/postemergence giant foxtail; type: in vivo, Setaria faberii
Method in brief: as §1

morningglory = test: Test B pre/postemergence morningglory; type: in vivo, Ipomoea hederacea
Method in brief: as §1

blackgrass = test: Test B pre/postemergence blackgrass; type: in vivo, Alopecurus myosuroides
Method in brief: as §1

soybean = test: Test B pre/postemergence soybean; type: in vivo, Glycine max
Method in brief: as §1

smallflower flatsedge = test: Test B flood test smallflower flatsedge; type: in vivo, Cyperus difformis
Method in brief: as §2

cocklebur = test: Test B pre/postemergence cocklebur; type: in vivo, Xanthium strumarium
Method in brief: as §1

[1] = Postemergence, Rate 31 g/ha, visual rating, scale 0 to 10 (0 no effect, 10 complete control)
[2] = Postemergence, Rate 62 g/ha, scale 0 to 10, 0 is no effect, 10 is complete control
[3] = Postemergence, Rate 125 g/ha, scale of 0 to 10 where 0 is no effect and 10 is complete control
[4] = Preemergence, Rate 62 g/ha, scale of 0 to 10 where 0 is no effect and 10 is complete control
[5] = Preemergence, Rate 125 g/ha, scale of 0 to 10 where 0 is no effect and 10 is complete control
[6] = Preemergence, Rate 250 g/ha, scale 0 to 10 (0 no effect, 10 complete control)
[7] = Rate 31 g/ha, Pre-emergence section (flood test species), scale 0 to 10
[8] = Rate 62 g/ha, flood test species, Pre-emergence, visual evaluation after twelve to sixteen days
[9] = Rate 125 g/ha, under heading Pre-emergence, flood test species, visual evaluation after twelve to sixteen days
[10] = Rate 250 g/ha, Pre-emergence (flood test species), scale 0 to 10, 0 is no effect, 10 is complete control
[11] = Postemergence, Rate 250 g/ha, scale of 0 to 10, 0 is no effect, 10 is complete control
[12] = Preemergence, Rate 31 g/ha, visual rating, scale 0 to 10 (0 no effect, 10 complete control)

CC(C)N(C(=O)n1oc(=O)n(CCC2=NOCCC2)c1=O)c1ccc(F)cc1 [Compound 656]
Nutsedge plant response rating (purple nutsedge; [1]): 0
Plant response rating, Nutsedge (purple nutsedge; [2]): 0
Nutsedge plant response rating (purple nutsedge; [3]): 0
Nutsedge plant response rating (purple nutsedge; [4]): 0
Nutsedge plant response rating (purple nutsedge; [5]): 0
Plant response rating, Nutsedge (purple nutsedge; [6]): 0
Wheat plant response rating (wheat; [1]): 0
Plant response rating, Wheat (wheat; [2]): 0
Wheat plant response rating (wheat; [3]): 0
Wheat plant response rating (wheat; [4]): 0
Wheat plant response rating (wheat; [5]): 0
Plant response rating, Wheat (wheat; [6]): 0
Ducksalad plant response rating (duck salad; [7]): 0
Plant response rating, Ducksalad (0 to 10 scale, 0 is no effect, 10 is complete control) (duck salad; [8]): 0
Ducksalad plant response rating (0 to 10 scale, 0 is no effect, 10 is complete control) (duck salad; [9]): 0
Ducksalad plant response rating (duck salad; [10]): 0
Corn plant response rating (corn; [1]): 0
Plant response rating, Corn (corn; [2]): 0
Corn plant response rating (corn; [3]): 0
Corn plant response rating (corn; [11]): 0
Corn plant response rating (corn; [12]): 0
Corn plant response rating (corn; [4]): 0
Corn plant response rating (corn; [5]): 0
Plant response rating, Corn (corn; [6]): 0
Wild oats plant response rating (wild oat; [1]): 0
Plant response rating, Wild oats (wild oat; [2]): 0
Wild oats plant response rating (wild oat; [3]): 0
Wild oats plant response rating (wild oat; [4]): 0
Wild oats plant response rating (wild oat; [5]): 0
Plant response rating, Wild oats (wild oat; [6]): 6
Rape plant response rating (rape; [1]): 0
Plant response rating, Rape (rape; [2]): 0
Rape plant response rating (rape; [3]): 0
Rape plant response rating (rape; [4]): 0
Rape plant response rating (rape; [5]): 0
Plant response rating, Rape (rape; [6]): 0
Rice plant response rating (rice; [7]): 0
Plant response rating, Rice (0 to 10 scale, 0 is no effect, 10 is complete control) (rice; [8]): 0
Rice plant response rating (0 to 10 scale, 0 is no effect, 10 is complete control) (rice; [9]): 0
Rice plant response rating (rice; [10]): 0
Crabgrass plant response rating (crabgrass; [1]): 0
Plant response rating, Crabgrass (crabgrass; [2]): 0
Crabgrass plant response rating (crabgrass; [3]): 0
Crabgrass plant response rating (crabgrass; [11]): 8
Crabgrass plant response rating (crabgrass; [12]): 6
Crabgrass plant response rating (crabgrass; [4]): 7
Crabgrass plant response rating (crabgrass; [5]): 7
Plant response rating, Crabgrass (crabgrass; [6]): 8
B. signalgrass plant response rating (surinam grass; [1]): 0
Plant response rating, B. signalgrass (surinam grass; [2]): 0
Plant response rating, B. signalgrass (surinam grass; [3]): 2
B. signalgrass plant response rating (surinam grass; [11]): 5
B. signalgrass plant response rating (surinam grass; [12]): 0
B. signalgrass plant response rating (surinam grass; [4]): 0
B. signalgrass plant response rating (surinam grass; [5]): 2
Plant response rating, B. signalgrass (surinam grass; [6]): 6
Redroot pigweed plant response rating (pigweed; [1]): 0
Plant response rating, Redroot pigweed (pigweed; [2]): 0
Redroot pigweed plant response rating (pigweed; [3]): 0
Redroot pigweed plant response rating (pigweed; [4]): 0
Redroot pigweed plant response rating (pigweed; [5]): 4
Plant response rating, Redroot pigweed (pigweed; [6]): 6
Barnyardgrass plant response rating (bamyardgrass; [7]): 0
Plant response rating, Barnyardgrass (0 to 10 scale, 0 is no effect, 10 is complete control) (bamyardgrass; [8]): 0
Barnyardgrass plant response rating (0 to 10 scale, 0 is no effect, 10 is complete control) (bamyardgrass; [9]): 0
Barnyardgrass plant response rating (bamyardgrass; [10]): 0
Velvetleaf plant response rating (velvetleaf; [1]): 0
Plant response rating, Velvetleaf (velvetleaf; [2]): 0
Velvetleaf plant response rating (velvetleaf; [3]): 0
Velvetleaf plant response rating (velvetleaf; [4]): 2
Velvetleaf plant response rating (velvetleaf; [5]): 4
Plant response rating, Velvetleaf (velvetleaf; [6]): 6
Sugarbeets plant response rating (sugar beet; [1]): 0
Plant response rating, Sugarbeets (sugar beet; [2]): 0
Sugarbeets plant response rating (sugar beet; [3]): 0
Sugarbeets plant response rating (sugar beet; [4]): 0
Sugarbeets plant response rating (sugar beet; [5]): 0
Plant response rating, Sugarbeets (sugar beet; [6]): 3
Giant foxtail plant response rating (giant foxtail; [1]): 0
Plant response rating, Giant foxtail (giant foxtail; [2]): 3
Giant foxtail plant response rating (giant foxtail; [3]): 9
Giant foxtail plant response rating (giant foxtail; [11]): 9
Giant foxtail plant response rating (giant foxtail; [12]): 4
Giant foxtail plant response rating (giant foxtail; [4]): 4
Giant foxtail plant response rating (giant foxtail; [5]): 10
Plant response rating, Giant foxtail (giant foxtail; [6]): 10
Morningglory plant response rating (morningglory; [1]): 0
Plant response rating, Morningglory (morningglory; [2]): 1
Morningglory plant response rating (morningglory; [3]): 2
Morningglory plant response rating (morningglory; [11]): 2
Morningglory plant response rating (morningglory; [4]): 0
Morningglory plant response rating (morningglory; [5]): 0
Plant response rating, Morningglory (morningglory; [6]): 0
Blackgrass plant response rating (blackgrass; [1]): 6
Plant response rating, Blackgrass (blackgrass; [2]): 6
Blackgrass plant response rating (blackgrass; [3]): 7
Blackgrass plant response rating (blackgrass; [11]): 9
Blackgrass plant response rating (blackgrass; [12]): 2
Blackgrass plant response rating (blackgrass; [4]): 4
Blackgrass plant response rating (blackgrass; [5]): 4
Plant response rating, Blackgrass (blackgrass; [6]): 5
Soybean plant response rating (soybean; [1]): 1
Plant response rating, Soybean (soybean; [2]): 2
Soybean plant response rating (soybean; [3]): 2
Soybean plant response rating (soybean; [4]): 0
Soybean plant response rating (soybean; [5]): 0
Plant response rating, Soybean (soybean; [6]): 0
S. Flatsedge plant response rating (smallflower flatsedge; [7]): 0
Plant response rating, S. Flatsedge (0 to 10 scale, 0 is no effect, 10 is complete control) (smallflower flatsedge; [8]): 0
S. Flatsedge plant response rating (0 to 10 scale, 0 is no effect, 10 is complete control) (smallflower flatsedge; [9]): 0
S. Flatsedge plant response rating (smallflower flatsedge; [10]): 0
Cocklebur plant response rating (cocklebur; [1]): 0
Plant response rating, Cocklebur (cocklebur; [2]): 0
Cocklebur plant response rating (cocklebur; [3]): 0
Cocklebur plant response rating (cocklebur; [11]): 0
Cocklebur plant response rating (cocklebur; [12]): 0
Cocklebur plant response rating (cocklebur; [4]): 0
Cocklebur plant response rating (cocklebur; [5]): 0
Plant response rating, Cocklebur (cocklebur; [6]): 0
